Tests used:
Septoria tritici [1] = test: Field Trial 2: efficacy against Septoria tritici on winter wheat (Limburgerhof); assay type: in vivo, Septoria tritici on winter wheat (cv. Riband); conditions: 200 g a.i./ha; for Disease (%) 19 DAA: applied at GS 33 and 26 days later at GS 39, natural infection, 19 days after last treatment; for Disease (%) 34 DAA: applied at GS 33 and GS 39, 34 days after last treatment; for antifungal activity against Qo inhibitor-resistant Septoria tritici, in words: commercial dose level
Description: (§1) Compound I-6 was used as 50 g/l EC formulation. Pyraclostrobin was used as commercial product HEADLINE.
This trial was conducted under field conditions in Limburgerhof, Rhineland-Palatinate, Germany. Seeds of winter wheat (cv. Riband) were planted and grown under standard conditions with adequate supply of water and nutrients. At growing stage GS 33 (Apr. 8, 2011), a first compound treatment (200 g a.i per ha) was made with a water volume of 400 L/ha, which was repeated 26 days later at growing stage GS 39. No further fungicide treatments were applied. Infection with fungal pathogens (e.g. Septoria tritici) occurred naturally. The evaluation of the disease incidences for Septoria tritici 19 and 34 days after the last treatment (DAA) are shown in Table IV. In the last row, the evaluation of the percentage of Qo inhibitor-resistant Septoria tritici isolates with the G143A mutation after the treatments is given.

Septoria tritici [2] = test: Field Trial 1: efficacy against Septoria tritici on winter wheat (Böhl-Iggelheim); assay type: in vivo, Septoria tritici on winter wheat (cv. Riband); conditions: 200 g a.i./ha; for Disease (%) 20 DAA: applied at GS 32 and 21 days later at GS 39, natural infection, 20 days after last treatment; for Disease (%) 33 DAA: applied at GS 32 and GS 39, 33 days after last treatment; for Disease (%) 46 DAA: applied at GS 32 and GS 39, 46 days after last treatment; for control of Qo inhibitor-resistant Septoria tritici isolates, in words: commercial dose level
Description: as §1
The trial was conducted under field conditions in Böhl-Iggelheim, Rhineland-palatinate, Germany. Seeds of winter wheat (cv. Riband) were planted and grown under standard conditions with adequate supply of water and nutrients. At growing stage GS 32 (Apr. 14, 2011), a first compound treatment (200 g a.i. per ha) was made with a water volume of 400 L/ha, which was repeated 21 days later at growing stage GS 39. No further fungicide treatments were applied. Infection with fungal pathogens (e.g. Septoria tritici) occurred naturally. The evaluation of the disease incidences for Septoria tritici 20, 33 and 46 days after the last treatment (DAA) are shown in table Ill. In the last row, the evaluation of the percentage of Qo inhibitor-resistant Septoria tritici isolates with the G143A mutation after the treatments is given.

[3] = test system: Septoria tritici isolates containing the G143A in the cytochrome b gene; test: Glass house Trial 3: control of leaf blotch on wheat caused by two Septoria tritici isolates containing G143A; assay type: in vivo; conditions: % diseased leaf area after about 28 days
Description: The spray solutions were prepared in several steps:
The stock solution was prepared as follows: 1.26 ml of a 1:1 mixture of cyclohexanone and dimethylsulfoxide was added to 8.4 mg of active ingredient. Next, 40.74 ml of a mixture of water, acetone (10%), the emulsifier Wettol (0.1%) and the wetting agent Silwet (0.05%) was added. This stock solution was then further diluted with the described solvent-emulsifier-water mixture to the desired concentrations.
Trial 3: Control of Leaf Blotch on Wheat Caused by Caused by Two Septoria tritici Isolates Containing the G143A in the Cytochrome b Gene for their Cytochrome Bc1 Complex
Wheat plants were grown in pots. These plants were sprayed to run-off with an aqueous suspension, containing the desired concentration of active ingredient. The next day, the treated plants were inoculated with an aqueous suspension of Septoria tritici. After inoculation, the trial plants were covered with a lid and immediately transferred to a chamber with a relative humidity of about 83 to 85% and 19.5 to 20° C. After 4 days the lid was removed. Altogether, the trial plants were cultivated for about 28 days in that greenhouse chamber. The extent of fungal attack on the leaves was then visually assessed as % diseased leaf area.

[4] = test system: Septoria tritici (Qo-inhibitor-resistant, G143A mutant); test: Microtiter test, Septoria tritici Qo-inhibitor-resistant G143A mutant (Use Example 1); assay type: cell-based; conditions: for IC50: Zymoseptoria tritici, read-out: Resistant Septoria tritici isolate (G143A mutation) (R-IC50)
Description: (§2) The active substances were formulated separately as a stock solution in dimethyl sulfoxide (DMSO) at a concentration of 10 000 ppm.
(§3) Activity against the Septoria blotch pathogen caused by Septoria tritici in the microtiter test
(§4) Fungal strains used: • a) Septoria tritici (Qo-inhibitor sensitive, wild-type) • b) Septoria tritici (Qo-inhibitor-resistant, G143A mutant)
(§5) 100 ml 2% Malt extract in water at pH6.8 were inoculated with microspores from 2 week old cultures grown on 2% malt extract+2% agar in Petri dishes and incubated for 3 days on a rotary shaker at 24° C. und 150 rpm. The culture was harvested, glycerol was added (15% (v/v) and kept frozen at −20° C. in aliquots of 1 ml.
(§6) 1 ml stock suspension was thawed and suspended into 800 ml of 2% malt extract in water at pH 6.8. Compounds were diluted from stock solution in (dimethylsulfoxide) DMSO in 10 steps. The compound solutions were diluted 1/5 with sterile deionized water before use. 5 μl of the compound solutions were transferred into empty microplates. The plates were then filled with 195 μl of the microspore suspension of each strain.
(§7) The antifungal activity was determined by measuring the turbidity of a culture in 96-well microplates in the presence of test compounds. Fungal growth was measured by recording the optical density at 620 nm every 15 h for 150 h. The relative antifungal activity was calculated by comparison of the effect of the test compounds with the effect of a DMSO control and a standard fungicide.
(§8) IC50-values (concentration of test compound resulting in 50% inhibition of fungal growth) were calculated from the resulting dose-response for each compound and strain. The initial concentration of the test compounds and the 10 steps of dilution (1:4 each) allowed IC50-values from 0.001 to 100 μmol/l (μM) to be assessed.

[5] = test system: Septoria tritici (Qo-inhibitor sensitive, wild-type); test: Microtiter test, Septoria tritici Qo-inhibitor sensitive wild-type (Use Example 1); assay type: cell-based; conditions: Zymoseptoria tritici, turbidity at 620 nm, read-out: Sensitive Septoria tritici isolate (wild type) (S-IC50)
Description: as §2, §3, §4, §5, §6, §7, §8

[6] = Resistant Septoria tritici isolate 1 (G143A mutation), 12.5 ppm
[7] = Resistant Septoria tritici isolate 1 (G143A mutation), 25 ppm
[8] = Resistant Septoria tritici isolate 1 (G143A mutation), 50 ppm
[9] = Resistant Septoria tritici isolate 1 (G143A mutation), 100 ppm
[10] = Resistant Septoria tritici isolate 1 (G143A mutation), 200 ppm
[11] = Resistant Septoria tritici isolate 2 (G143A mutation), 12.5 ppm
[12] = Resistant Septoria tritici isolate 2 (G143A mutation), 25 ppm
[13] = Resistant Septoria tritici isolate 2 (G143A mutation), 50 ppm
[14] = Resistant Septoria tritici isolate 2 (G143A mutation), 100 ppm
[15] = Resistant Septoria tritici isolate 2 (G143A mutation), 200 ppm

| Structure (SMILES) | Disease (%) 19 DAA (Septoria tritici [1]) [%] | Disease (%) 34 DAA (Septoria tritici [1]) [%] | antifungal activity against Qo inhibitor-resistant Septoria tritici, in words (Septoria tritici [1]) | Disease (%) 20 DAA (Septoria tritici [2]) [%] | Disease (%) 33 DAA (Septoria tritici [2]) [%] | Disease (%) 46 DAA (Septoria tritici [2]) [%] | control of Qo inhibitor-resistant Septoria tritici isolates, in words (Septoria tritici [2]) | Disease level (%) [3, 6] [%] | Disease level (%) [3, 7] [%] | Disease level (%) [3, 8] [%] | Disease level (%) [3, 9] [%] | Disease level (%) [3, 10] [%] | Disease level (%) [3, 11] [%] | Disease level (%) [3, 12] [%] | Disease level (%) [3, 13] [%] | Disease level (%) [3, 14] [%] | Disease level (%) [3, 15] [%] | IC50 [4] [µM] | Resistance factor RF = R-IC50/S-IC50 [4] | IC50 [5] [nM] |
| --- | --- | --- | --- | --- | --- | --- | --- | --- | --- | --- | --- | --- | --- | --- | --- | --- | --- | --- | --- | --- |
| CNC(=O)C(=N/OC)/C(C)=C\COc1ccn(-c2ccc(Cl)cc2)n1 [Compound I-6, (Z)-5-[1-(4-Chloro-phenyl)-1H-pyrazol-3-yloxy]-2-[(E)-methoxyimino]-3-methyl-pent-3-enic acid methyl amide] | 3 | 12 | capable to reduce the infection | 1 | 6 | 36 | capable to control | 50 | 10 | 3 | 3 | 1 | 20 | 15 | 3 | 3 | 0 | 8.3 | 24 | 340 |
| COC(=O)N(OC)c1ccccc1COc1ccn(-c2ccc(Cl)cc2)n1 [Pyraclostrobin, reference compound] | 5 | 28 | only slightly above the untreated control | 8 | 32 | 93 | insufficient control level | 100 | 100 | 100 | 90 | 30 | 60 | 60 | 40 | 25 | 15 | 3.4 | 2882 | 1.2 |
